# From patent US7056938B1, “Method for scavenging radicals with urocanic acid, derivatives and analogues” (Academisch Ziekenhuis Bij De Univ., priority 1999, dated 2006)
# Test: Fenton oxidation of UCA (Fe2+ / hydrogen peroxide, HPLC)
# Assay type: physicochemical
# Conditions: for TRANS-UROCANIC ACID LEFT OVER: trans-UCA 40 μM, hydrogen peroxide 500 μM; for YIELD of FENTON OXIDATION PRODUCTS: sum of 8 major peaks
# Protocol: Trans-UCA and cis-UCA were separated from each other and from several UCA oxidation products on a 4.6×250 mm Alltima C18 and Luna C18 reversed-phase column (Alitech, Deerfield, Ill. and Phenomenex, Torrence, Calif., resp.) with a flow of 0.8 mL/min, delivered by P-3500 HPLC-pumps (Pharmacia, Uppsala, Sweden). Samples of 20 to 200 μL were injected by a Promis II autosampler (Spark Holland, Emmen, The Netherlands) and chromatographic data were recorded on an SP 4270 integrator (Spectra Physics, San Jose, Calif.). Peak area data from samples were only processed under identical HPLC circumstances. A UV-detector (Applied Biosystems, model 759A, Foster City, Calif.) was set for 226 nm detection. Isocratic elution was performed with 10 mM ammonium formate buffer, containing 0.2–0.8 mM tetrabutylammonium(TBA)formate and 1% acetonitrile (pH 7.2). Collected fractions were acidified with formic acid up to a final concentration of 100 mM and passed through C18 could phase extraction columns (J T Baker, Deventer, The Netherlands) in order to remove TBA.
# […] In addition, two hydroxyl-radical-generating systems with copper ions (Cu^2+) were used, consisting of 50 μM Cu^2+ with either 500 μM hydrogen peroxide or 5 mM ascorbic acid.
# In the next series of experiments we studied the Fenton oxidation of UCA, representing another natural oxidation process. Trans-UCA and cis-UCA isomers were Fenton oxidized by ferorus ions (Fe^2+) and hydrogen peroxide at physiological concentrations. The initial hydrogen peroxide concentration was 500 μM and the ferrous ion concentration was varied from 0 to 500 μM. In all Fenton oxidation reactions the degree of UCA-isomer breakdown was calculated from their reduced peak areas. The oxidation reaction must have been completed within 2 minutes for all reaction conditions, because no further breakdown was observed after prolonged incubation.
# When the Fenton reaction was performed in water instead of phosphate buffer, the oxidative breakdown of trans-UCA was enhanced irrespective of the UCA concentration. The turbidity seen in reactions performed in phoshate buffer (10 mM) with high Fe^2+ concentration (>100 μM) was probably due to the formation of insoluble, iron phosphate, thereby reducing the free availability of Fe^2+. Table 3 summarizes the difference between water and phosphate medium for trans-UCA at an initial concentration of 40 μM with respect to its breakdown and the formation of Fenton-oxidation products. Similarly to the photo-oxidation experiments, the peak areas of the 8 major oxidation products were summed. […] A close resemblance was observed between the chromatographic patterns of UCA Fenton oxidation products (not shown) and those of UCA photo-oxidation products. Three of them has been identified (vide infra).
# In another series of experiments we studied the Fenton oxidation of UCA, representing another natural oxidation process. The initial hydrogen peroxide concentration was 500 μM in all experiments and the ferrous ion concentration was varied from 0 to 400 μM. Four sets of conditions were compared: […] in phosphate buffer pH 7.2, 2. Fe^2+ in phosphate buffer plus EDTA, 3. Fe^2− without buffer with a initial pH of 5.5–5.3 and 4. Cu^2+ in phosphate buffer plus ascorbate. The degree of breakdown was similar for both UCA isomers.
compound,measurement,setting,value
"O=C(O)/C=C/c1cnc[nH]1 [trans-Urocanic acid, Trans-urocanic acid]",TRANS-UROCANIC ACID LEFT OVER,"Fe2+ 0 μM, in phosphate buffer 10 mM pH 7.2",100 (±1) %
same,YIELD of FENTON OXIDATION PRODUCTS,"Fe2+ 0 μM, in phosphate buffer",<10 A.U.
same,YIELD of FENTON OXIDATION PRODUCTS,"Fe2+ 0 μM, in water",<10 A.U.
same,TRANS-UROCANIC ACID LEFT OVER,"Fe2+ 0 μM, in water",100 (±3) %
same,TRANS-UROCANIC ACID LEFT OVER,"Fe2+ 50 μM, in phosphate buffer 10 mM pH 7.2",97 (±1) %
same,YIELD of FENTON OXIDATION PRODUCTS,"Fe2+ 50 μM, in phosphate buffer",<10 A.U.
same,YIELD of FENTON OXIDATION PRODUCTS,"Fe2+ 50 μM, in water",194 (±34) A.U.
same,TRANS-UROCANIC ACID LEFT OVER,"Fe2+ 50 μM, in water",77 (±11) %
same,TRANS-UROCANIC ACID LEFT OVER,"Fe2+ 100 μM, in phosphate buffer 10 mM pH 7.2",94 (±5) %
same,YIELD of FENTON OXIDATION PRODUCTS,"Fe2+ 100 μM, in phosphate buffer",27 (±5) A.U.
same,YIELD of FENTON OXIDATION PRODUCTS,"Fe2+ 100 μM, in water",272 (±6) A.U.
same,TRANS-UROCANIC ACID LEFT OVER,"Fe2+ 100 μM, in water",48 (±7) %
same,TRANS-UROCANIC ACID LEFT OVER,"Fe2+ 250 μM, in phosphate buffer 10 mM pH 7.2",83 (±3) %
same,YIELD of FENTON OXIDATION PRODUCTS,"Fe2+ 250 μM, in phosphate buffer",36 (±3) A.U.
same,YIELD of FENTON OXIDATION PRODUCTS,"Fe2+ 250 μM, in water",423 (±76) A.U.
same,TRANS-UROCANIC ACID LEFT OVER,"Fe2+ 250 μM, in water",19 (±8) %
same,TRANS-UROCANIC ACID LEFT OVER,"Fe2+ 500 μM, in phosphate buffer 10 mM pH 7.2",78 (±12) %
same,YIELD of FENTON OXIDATION PRODUCTS,"Fe2+ 500 μM, in phosphate buffer",49 (±9) A.U.
same,YIELD of FENTON OXIDATION PRODUCTS,"Fe2+ 500 μM, in water",511 (±35) A.U.
same,TRANS-UROCANIC ACID LEFT OVER,"Fe2+ 500 μM, in water",<4%
same,broken down by the unbuffered Fenton oxidation system,"initial UCA concentration 250 μM, unbuffered",78%
